Laboratory results published in US20260250318A1, “COMPOSITIONS AND METHODS FOR CROSSING THE BLOOD BRAIN BARRIER” (VOYAGER THERAPEUTICS, INC., priority 2022, published 2026).

Legend:
[1] = tested on: brains, heart, liver, muscle, and DRG of the NHPs; assay: Maturation of TTM-001 and TTM-002 capsids, NGS enrichment in NHP tissues; format: in vivo; details: relative to AAV9 control
Procedure, shortened: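 Variants carry mutations within and flanking the loop IV peptide insert: positions 450–466 were triplet-randomized, while positions 449–466 received low-frequency point mutations. The combined pool went into two NHPs, and each peptide was scored by NGS enrichment ratio against AAV9.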

brain = assay: Matured TTM-001 and TTM-002 variants, NGS enrichment in mouse brain; format: in vivo, mice; details: relative to AAV9 control
[2] = NGS fold-enrichment, DRG of NHPs
[3] = NGS fold-enrichment, RNA, brain of NHPs
[4] = NGS fold-enrichment, heart of NHPs
[5] = NGS fold-enrichment, liver DNA of NHPs
[6] = NGS fold-enrichment, liver RNA of NHPs
[7] = NGS fold-enrichment, muscle of NHPs
[8] = NGS fold-enrichment, brain of mice
[9] = NGS fold-enrichment of RNA, NHP brain
[10] = NGS fold-enrichment, NHP liver DNA
[11] = NGS fold-enrichment, NHP liver RNA
[12] = NGS fold-enrichment, NHP muscle
[13] = NGS fold-enrichment, mouse brain
[14] = NGS fold-enrichment of matured AAV capsid variants, NHP brain, RNA

Sequence	Fold Enrichment relative to AAV9, DRG (NHP) [1, 2] [fold]	Fold Enrichment relative to AAV9, Brain (NHP) [1, 3] [fold]	Fold Enrichment relative to AAV9, Heart (NHP) [1, 4] [fold]	Fold Enrichment relative to AAV9, Liver DNA (NHP) [1, 5] [fold]	Fold Enrichment relative to AAV9, Liver RNA (NHP) [1, 6] [fold]	Fold Enrichment relative to AAV9, Muscle (NHP) [1, 7] [fold]	Fold Enrichment relative to AAV9, Brain (Mouse) (brain; [8]) [fold]	Fold Enrichment relative to AAV9, Brain (NHP) [1, 9] [fold]	Fold Enrichment relative to AAV9, DRG (NHP) ([1]; NGS fold-enrichment, NHP DRG) [fold]	Fold Enrichment relative to AAV9, Heart (NHP) ([1]; NGS fold-enrichment, NHP heart) [fold]	Fold Enrichment relative to AAV9, Liver DNA (NHP) [1, 10] [fold]	Fold Enrichment relative to AAV9, Liver RNA (NHP) [1, 11] [fold]	Fold Enrichment relative to AAV9, Muscle (NHP) [1, 12] [fold]	Fold Enrichment relative to AAV9, Brain (Mouse) (brain; [13]) [fold]	other results
ETIKGSGSPHSKAQNQQT	0.000	64.609	0.000	0.024	0.000	0.144	67.201								
ETINGSGSPHSKAQNLQT	0.221	90.969	1.023	0.813	0.179	0.197	107.216	90.969	0.221	1.023	0.813	0.179	0.197	107.216	
KAEHGSGSPHSKAQNQQT	0.000	61.830	0.000	0.184	0.772	0.000	116.201								
KAEMGSGSPHSKAQNQQT	0.000	83.049	0.020	0.112	0.768	0.000	135.019	83.049	0.000	0.020	0.112	0.768	0.000	135.019	
KAENGSGSPHSKAQNQQT															Fold Enrichment relative to AAV9, Brain (NHP) [1, 14]: 52.487 fold; Fold Enrichment relative to AAV9, DRG (NHP) ([1]; NHP DRG): 0.000 fold; Fold Enrichment relative to AAV9, Heart (NHP) ([1]; NHP heart): 0.157 fold; Fold Enrichment relative to AAV9, Liver DNA (NHP) ([1]; NHP liver, DNA): 0.242 fold; Fold Enrichment relative to AAV9, Liver RNA (NHP) ([1]; NHP liver, RNA): 0.000 fold; Fold Enrichment relative to AAV9, Muscle (NHP) ([1]; NHP muscle): 0.029 fold; Fold Enrichment relative to AAV9, Brain (Mouse) (brain; mouse brain): 120.256 fold
KAETGSGSPHSKAQNQQT															Fold Enrichment relative to AAV9, Brain (NHP) [1, 14]: 52.219 fold; Fold Enrichment relative to AAV9, DRG (NHP) ([1]; NHP DRG): 0.000 fold; Fold Enrichment relative to AAV9, Heart (NHP) ([1]; NHP heart): 0.047 fold; Fold Enrichment relative to AAV9, Liver DNA (NHP) ([1]; NHP liver, DNA): 0.188 fold; Fold Enrichment relative to AAV9, Liver RNA (NHP) ([1]; NHP liver, RNA): 0.009 fold; Fold Enrichment relative to AAV9, Muscle (NHP) ([1]; NHP muscle): 0.581 fold; Fold Enrichment relative to AAV9, Brain (Mouse) (brain; mouse brain): 132.940 fold
KAIIGHESPHKSGQNQQT								88.563	0.000	0.150	0.145	0.062	0.000	8.530	
KAIKGSGSPHSKAQDQQT	0.000	82.258	0.000	0.000	0.108	0.000	85.178	82.258	0.000	0.000	0.000	0.108	0.000	85.178	
KAINGHDNPHKSGQNQQT								88.906	0.297	0.721	0.130	0.222	0.482	9.702	
KAINGHDSPHKSAQNQET								90.402	0.000	0.073	0.000	0.746	0.000	10.674	
KAINGHDSPHKSAQSQQT								95.204	0.146	0.310	0.058	0.699	0.000	14.595	
KAINGHDSPHKSEKNQQT								77.103	0.000	0.274	0.000	0.000	0.000	26.868	
KAINGHDSPHKSGPRQQT								145.142	0.000	0.408	0.000	0.000	0.000	8.259	
KAINGHDSPHKSGQIRQT								108.510	0.000	23.908	0.261	0.132	0.000	8.862	
KAINGHDSPHKSGQSPQT								75.734	0.095	0.148	0.238	0.000	0.000	14.195	
KAINGPDSPHKSGQKQQT								78.213	0.464	0.047	0.162	0.323	0.000	10.395	
